Data taken from patent publication US9949980B2, “Drugs to prevent HPV infection” (Wisconsin Alumni Research Foundation, priority 2008, dated 2018).
Where two headings read alike, the source gives them in different places.

Tests used:
[1] = system: HPV16 pseudovirus; experiment: Luciferase assay: HPV16 pseudovirus with renilla luciferase reporter (HPV16wpA-RL); details: renilla luciferase reporter behind HPV16 promoter
Method: The protocol for the secondary screen was identical to that of the primary screen with the exception that all volumes were scaled up by a factor of four. RL activity was measured using the Renilla Luciferase Assay System (Promega).

[2] = in vitro; details: human, Viability (CelTiter Glow)
[3] = system: HPV11 pseudoviruses; experiment: HPV11 pseudovirus infection in HaCaT cells; type: cell-based
Method: (§1) FIG. 4. Compounds 13 and 14 can inhibit infection by multiple anogenital HPVs. Shown are results from infection experiments in HaCaT cells monitoring the efficiency of infection by HPV16, HPV11 and HPV31 pseudovirus carrying the firefly luciferase gene in the absence (0 μM, vehicle only) or increasing concentrations (0.1 to 100 μM) of Compound 13 or 14. The Y axis is the relative efficiency of infection (squares) or cell viability (circles) as a function of drug concentration (X axis). All data points represent the average of values from triplicate samples. […] Data for HPV16 is the also plotted in FIG. 2.
(§2) Compounds 13 and 14: inhibition of infection by multiple papillomavirus genotypes. The goal of this study is to identify compounds that inhibit all sexually transmitted HPVs. For this reason, we monitored the ability of Compounds 13 and 14 to inhibit infection of two additional papillomavirus pseudoviruses that were generated using the capsid proteins of two other sexually transmitted HPVs, high risk HPV31 and low risk HPV11. […]
(§3) At 4 hours prior to exposure of cell to pseudoviruses, compounds were added to plates in 1% DMSO final concentration at the indicated amounts. […] Cell viability was assessed in parallel plates by Luminescent Cell Viability Assay (Promega Cat. #G7571).

[4] = system: HPV16 pseudoviruses; experiment: Virus particle subcellular localization, fluorescently labeled HPV16 pseudovirus; type: cell-based; details: 24 hours post infection
Method: FIG. 6. Localization of HPV16 pseudovirions 24 hours post infection. Shown are representative confocal images of cells exposed to cyberXX-labeled HPV16 pseudovirus in the absence (FIG. 6B) or presence of Compound 13 (FIG. 6C) and Compound 14 (FIG. 6D). FIG. 6A is a mock infection negative control. Nuclei are stained.
Mechanism of action of Compounds 13 and 14. To begin to assess the mechanism by which Compounds 13 and 14 inhibit HPV infection, we performed fluorescent microscopy studies on cells treated or not treated with Compounds 13 and 14 that were exposed to HPV16 pseudoviruses in which the encapsidated DNA was labeled with a fluorescent intercalating agent. […] At 24 hours post infection we observed a typical perinuclear staining for the fluorescently labeled HPV16 pseudoviruses in both the untreated and drug treated cells.
Virus particle sub cellular localization studies: A target DNA was labeled with Syto-14 (Invitrogen, 25 NM) in 293FT cells before virus was being packaged. HaCaT cells were infected with the labeled HPV pseudovirus for 24 hours, harvested, and fixed with 1% formaldehyde for 30 minutes, followed by permeabilization with 0.2% Triton X-100 for 10 minutes. Cells were blocked with Image-IT FX Signal Enhancer (Invitrogen) for 30 minutes and incubated with rabbit anti-lamin B1 (ab16048, Abcam) antibodies. […] Virus localization was determined by fluorescence.

[5] = system: HaCaT cells; type: cell-based, human; details: for CD50 (cytotoxicity): human, 76 h
Excerpt: (§4) FIG. 2. Dose dependence inhibition of HPV16 pseudovirus infection in a human keratinocyte cell line (HaCaT). Graphed are the dose-dependent effects of lead compounds shown in Table 2 on the efficiency of infection by HPV16 pseudovirus scored by measuring luciferase reporter activity (squares) as well as their effects on cell viability (circles).
(§5) All but one of these compounds (6 is […]) were repurchased and subjected to a tertiary screen performed in the human keratinocyte cell line, HaCaT, and using HPV16 pseudoviruses encoding a third reporter gene, firefly luciferase, transcribed from a different, E1a, promoter.
(§6) At 4 hours prior to exposure of cell to pseudoviruses, compounds were added to plates in 1% DMSO final concentration at the indicated amounts. Four hours later, 10 multiplicity of infection (M.O.I.) units of HPV16 pseudovirus carrying the plasmid LucF was added to the cells. 72 hours later, cells were lysed and luciferase assays performed using the Luciferase Assay System (Promega Cat. #E1501). For infection studies with HPV11 and HPV31 pseudoviruses, 200 virus genome equivalents (vge) of virus per cell were used. Cell viability was assessed in parallel plates by Luminescent Cell Viability Assay (Promega Cat. #G7571).

[6] = system: HPV31 pseudoviruses; experiment: HPV31 pseudovirus infection in HaCaT cells; type: cell-based
Method: as §1, §2, §3

[7] = system: HPV16 pseudoviruses; experiment: microbe, parasite or virus in culture; type: cell-based; details: Human papillomavirus 16, HEK-293T, 48 h
Method in brief: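 Viability was read by CellTiter Glo luminescence on the same wells used for the SEAP infection read-out, after 48 hrs further incubation.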

[8] = system: HPV16 pseudovirus; experiment: microbe, parasite or virus in culture; type: cell-based; details: Human papillomavirus 16, HaCaT, read-out: IC50, HPV16 pseudovirus infection
Excerpt: as §4, §5
The infectivity assay was repeated at least twice and each assay was performed in replicate (n≥3).
as §6

[9] = system: HPV16, HPV11, and HPV31 pseudovirus; experiment: Infection by HPV16, HPV11 and HPV31 pseudovirus in HaCaT cells (all genotypes together); type: cell-based, HPV; details: for IC50 in words for all three HPV pseudovirus infections: HPV16, HPV11, HPV31, 0.1 to 100 μM; for Concentration that completely inhibited all the tested genotypes: HPV16, HPV11, HPV31 pseudovirus
Method: as §1
Infection experiments in human keratinocyte cell line, HaCaT, monitoring the efficiency of infection by HPV16, HPV11, and HPV31 pseudovirus carrying the firefly luciferase gene were conducted in the absence or increasing concentrations (0.1 to 100 μM) of Compounds 13 and 14 (see FIG. 4).
In vitro data were collected at 3 μM concentration. […] A human treatment dosage is preferably between 0.1 μM and 100 mM, more preferably between 1 and 10 mM.
as §6

[10] = read-out: Infectivity (SEAP Activity), 3 μM HTS standard concentration, 293T cells, 48 hrs
[11] = read-out: Infectivity vs. viability, 3 μM HTS standard concentration, ratio infectivity/viability
[12] = read-out: Primary HTS SEAP vs Viability, Table 2, first pair of columns (c2)
[13] = read-out: Primary HTS SEAP vs Viability, Table 2, second pair of columns (c4)

Row | SMILES | Luciferase assay RL % Average [1] [%] | viability at 52 h, 3 μM [2] [%] | IC50 [3] [nM] | Step at which the compound inhibits infection (entry of labeled pseudovirus) [4] | Toxicity / cytotoxicity in words [5] | CD50 (cytotoxicity) [5] [µM] | IC50 [6] [nM] | activity at 3 µM [7, 10] [%] | activity at 3 µM [7, 11] [%] | activity at 3 µM [7, 12] [%] | activity at 3 µM [7, 13] [%] | IC50 [8] [nM] | IC50 in words for all three HPV pseudovirus infections [9] | Concentration that completely inhibited all the tested genotypes [9] [µM]
1 | CCCn1c2ccccc2c2nnc(SC(CC)C(=O)Nc3ccc(Cl)cn3)nc21 (stereo not shown) [Compound 13, N-(5-chloro-2-pyridinyl)-2-[(5-propyl-5H-[1,2,4]triazino[5,6-b]indol-3-yl)thio]butanamide] | 150.17 | 102 | < 100 | function post-entry | little to no cytotoxicity | 25 | 150 | 21.8 | 21.4 | 8.25 | 35.4 | 800 | Submicromolar | 10
2 | Cc1cc(C(c2ccc(F)cc2)c2cc(C)c(NC(=O)c3ccccc3)c(C)c2)cc(C)c1NC(=O)c1ccccc1 [Compound 14, N,N′[[(4-fluorophenyl)methylene]bis(2,6-dimethyl-4,1-phenylene)]dibenzamide] | 37.54 | 110 | < 100 | function post-entry | little to no cytotoxicity | > 100 | < 100 | 51 | 46.5 | 65.4 | 36.6 | 200 | Submicromolar | 4
